In ChEMBL document CHEMBL3507680, “University of Dundee, Gates Library screen for HepG2 cell viability”:

Assay: Human HepG2 cell viability assay in 384 well format
Format: toxicity, cell-based
Design: dose 125 nL, time 70.5 hour; cytotoxicity at 70.5 h: concentration not given beside the values
Settings: HepG2 cells, read-out: Inhibition

Row | SMILES | cytotoxicity at 70.5 h [%]
1 | CC(C)NS(=O)(=O)c1cc(C(=O)O)cc(-c2ccccc2F)c1 | -10.8
2 | Fc1ccccc1OCCc1cc(C2CNCCO2)n[nH]1 (stereo not drawn) | -5.54
3 | CN1CCN(Cc2ccc(-c3ccc4[nH]ccc4c3)nc2)CC1 | -15.3
4 | Cc1nn2cccnc2c1C(=O)N1CCCC(n2cccn2)C1 (stereo not drawn) | 17.9
5 | O=C(Nc1cnn(Cc2ccccc2)c1)N1CCN(CCO)CC1 | -4.22
6 | CCN1CCC(CNCc2cc(C)ccc2OC)C1 (stereo not drawn) | -8.51
7 | CCc1nc(C)c(C(=O)NCCNC(=O)Cc2cccc(F)c2)s1 | -6.24
8 | N#Cc1cccnc1OC1CCN(S(=O)(=O)c2c(F)cccc2F)CC1 | 39.9
9 | CC(C)Nc1cccc(CNC(=O)N2CCCC2)c1 | -5.5
10 | O=C(c1ccccn1)N1C[C@@H]2CC[C@H](C1)N(C(=O)CCN1CCCC1)C2 | 38
11 | Cn1nccc1-c1ccc2nc(C3CCN(CC4CC4)CC3)nn2c1 | -12.2
12 | CCn1ncc2c1CN(C(=O)Cc1cccs1)CC2COC (stereo not drawn) | -7.83
13 | CCc1nc(C)c([C@H]2CN(C)C[C@@H]2C(=O)NCCc2cnccn2)[nH]1 | -5.77
14 | C[C@H]1C[C@@H]2CCN(CC3CCOCC3)C[C@H]2O1 | -7.97
15 | Cc1cc(CNc2ccc(CC(=O)N(C)c3ccccc3)cc2)no1 | 0.0494
16 | N#Cc1cnc2ccccc2c1N1CCN(CCC(=O)O)CC1 | 1.24
17 | CCCc1noc(C(C)N2CCN(CCn3ccccc3=O)CC2)n1 (stereo not drawn) | -2.24
18 | O=C(c1cnn2cccnc12)N1CCCC(n2ccnc2)C1 (stereo not drawn) | -3.58
19 | CN(C)c1nccc(N2CCO[C@H]3CN(CC4CCOCC4)C[C@H]32)n1 | -7.1
20 | CCOC(=O)CN1CCC(C(=O)c2cc(F)ccc2F)CC1 | 34.9
21 | COc1ccc(CNCc2cn(C)nc2C)cc1 | -2.32

Row | SMILES | cytotoxicity at 70.5 h [%]
22 | CCOCC1CN(Cc2csc(C)n2)Cc2nccn2C1 (stereo not drawn) | 3.86
23 | COCC(=O)N1CCCN(c2ncnc3c2CCNCC3)CC1 | -5.03
24 | CCn1nc(C(=O)N2CCCC(n3cncn3)C2)ccc1=O (stereo not drawn) | -14.8
25 | CN(C)CCN1CCC2(CCN(C(=O)c3ccncc3)CC2)C1=O | -7.69
26 | COCCN(Cc1cccc(C#N)c1)Cc1nnsc1Cl | 23
27 | CC(C)COC(=O)N1CCN(C(=O)c2ccc3nccn3c2)CC1 | 30.9
28 | O=C(NC1(c2nnn(CC3CCCO3)n2)CCCC1)c1ccccc1 (stereo not drawn) | -4.54
29 | Cc1cn2nc(N3CCCC3C(=O)N3CCSCC3)sc2n1 (stereo not drawn) | -8.52
30 | NCC1CCCCN1C(=O)Cc1cccc(Cl)c1 (stereo not drawn) | -6.28
31 | CCS(=O)(=O)N1Cc2nnn(C)c2C(COCCN(C)C)C1 (stereo not drawn) | -0.313
32 | CNC(=O)C1(CCCc2ccncc2)CCN1 (stereo not drawn) | -9.29
33 | Cc1nc(CN(C)C2CCN(Cc3cnc(C)s3)C2)no1 (stereo not drawn) | -3.46
34 | NC(=O)CN(Cc1ccc(Br)cc1)C(=O)c1cnccn1 | -5.94
35 | CCN1CCN(S(=O)(=O)c2cc(Cl)c(Cl)cc2C)CC1 | -2.4
36 | CCCOc1ncccc1CNc1nnc(C)c(C)c1C#N | 21.8
37 | CS(=O)(=O)c1ccc(OCCNCc2c(F)cccc2F)cc1 | -3.48
38 | COc1ccc(CC(=O)N2CCCCC2Cn2cc(C)cn2)cc1F (stereo not drawn) | 2.82
39 | O=C(NCCNc1ccccn1)Nc1cc(C(F)(F)F)c[nH]c1=O | -3.73
40 | c1cc(CN2CCCC2c2noc(C3CC3)n2)on1 (stereo not drawn) | -15.8
41 | CSCC[C@@H](CO)NC(=O)c1sc(-c2ccccc2Cl)nc1C | -16.5
42 | COc1ncccc1CNC(=O)NC1CCOc2ccccc21 (stereo not drawn) | -13.3

Row | SMILES | cytotoxicity at 70.5 h [%]
43 | CC(C)CN1CC2(CCN(C(=O)c3cnccn3)CC2)CC1=O | -15
44 | COC(C)c1noc(CN(C)c2ncc(Br)cn2)n1 (stereo not drawn) | -3.46
45 | CC(C)(C)NS(=O)(=O)c1ccc(NC(=O)C2CC2)cc1 | 7.98
46 | Cn1cc(C(=O)Nc2ccc(CC(=O)NC3CC3)cc2)nn1 | -6.27
47 | CN(C)CCC1CCN(Cc2ccn(C)c(=O)c2)CC1 | -4.16
48 | CC(C)CC(C)N(C)Cc1nnc(-c2ccco2)o1 (stereo not drawn) | 31.7
49 | COc1ccc(OC)c(CN(C(=O)c2ccc(C)[nH]c2=O)C2CC2)c1 | 3.46
50 | CC(Oc1ccc(OCc2ncc(C(C)C)o2)cc1)C(N)=O (stereo not drawn) | -8.33
51 | CSc1ncc(CNC(C)c2cnn(-c3ccccc3)c2C)cn1 (stereo not drawn) | -2.21
52 | Cc1ccc(N2CC[C@@]3(O)CCN(S(C)(=O)=O)C[C@H]3C2)nn1 | 6.8
53 | CC(C)(C)CCNc1nccc(-c2c[nH][nH]c2=O)n1 | -4.19
54 | O=C(C1CCC2(CCN(c3nncs3)CC2)CO1)N1CCCC1 (stereo not drawn) | -1.78
55 | CCCN1CCC(N2CCC(Cn3cc(CC(C)O)nn3)CC2)CC1 (stereo not drawn) | -6.23
56 | Cc1cc(NC(=O)NCCO)nn1-c1ccc(Cl)cc1Cl | 0.498
57 | Cc1cccc(OCCNC(=O)C(C)S(=O)(=O)C2CCCC2)c1 (stereo not drawn) | -9.37
58 | CN(C)C(CNCc1nc(-c2ccsc2)no1)c1cccs1 (stereo not drawn) | -8.94
59 | CC(C)CN(Cc1ccccn1)Cc1ccccc1OCC(=O)O | -9.42
60 | Cc1cc(C)c(OCC(=O)NS(=O)(=O)c2c(C)noc2C)c(C)c1 | 12.1
61 | C[C@@H](NC(=O)c1cnccn1)c1c(-c2ccc(F)cc2)noc1C(=O)O | -1.48
62 | c1ccc(CCN2CCCC(c3ccnc4nccn34)C2)cc1 (stereo not drawn) | -1.37
63 | COCc1nc(C2CC2)nn1-c1cc(Cl)ccc1OC | -3.71

Row | SMILES | cytotoxicity at 70.5 h [%]
64 | Oc1ccc(Cl)cc1CNCc1cccc(C(F)(F)F)c1 | -12.9
65 | CC(OCC1CC1)C(=O)Nc1ncn(CC(=O)N2CCCCCC2)n1 (stereo not drawn) | 10.7
66 | CCOCc1ccc(NC(=O)N2CCOC3(CCC3)C2)cc1 | -5.85
67 | CC(C)C(NC(=O)NCC1CC1)c1nnc2n1CCC2 (stereo not drawn) | 3.11
68 | Cn1cccc1C(=O)N1C[C@@H]2CCN(c3cccnc3)C[C@@H]2C1 | -7.6
69 | c1ccc(OCc2nnc3n2CCN(CC2CCOCC2)C3)nc1 | -0.459
70 | Cc1cc(CNCC2(O)CCOCC2)ccc1F | -0.741
71 | Cn1cc(CN2CCCN(C(=O)c3cc[nH]n3)CC2)cn1 | -9.96
72 | Cc1nc[nH]c1CN(Cc1ccccc1)Cc1nccs1 | -6.42
73 | O=C([C@H]1CN(Cc2nccs2)C[C@H]2OCC[C@@H]12)N1CCCC1 | 10.2
74 | CN(Cc1nc(C2CC2)no1)C(=O)c1cccc(CC2CCNCC2)c1 | -5.09
75 | CN1C[C@H](O)[C@]2(CCN(Cc3ccc(F)c(F)c3)C2)S1(=O)=O | 13.9
76 | Cc1nc(CNC(=O)[C@@H]2CCCN2C(=O)OC(C)(C)C)cs1 | -7.16
77 | O=C(C1CCCCC1)N1CCN(Cc2nc(-c3ccco3)no2)CC1 | -5.01
78 | CN(Cc1ccncc1)C(=O)NC1CCS(=O)(=O)C1 (stereo not drawn) | -3.72
79 | CN(C)c1ncc(-c2cccc(C(N)=O)c2)c(C2CNCCO2)n1 (stereo not drawn) | -1.28
80 | O=C(NCc1ccccc1F)NCC(O)c1cccc(F)c1 (stereo not drawn) | -10.3
81 | O=C(Nc1ccccn1)C1CCN(Cc2cc3c(cc2O)OCO3)CC1 | 3.83
82 | Cc1ccc(CNC(=O)CCC(=O)NCCC(C)C)o1 | 18.9
83 | CS(=O)(=O)CCC(=O)Nc1cc(F)ccc1OCC1CCCO1 (stereo not drawn) | 12.1
